Experimental data taken from the supplement of paper PMC10627819.

Experiments:
S. pneumoniae D39V [1] = experiment: fitness (endpoint OD595 vs no drug) (fraction); higher = more growth
Procedure, shortened: (§1)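 Plates with 384 wells were inoculated at OD595 0.01 using 30 µl of TSB, LB Lennox or CY, or 55 µl for S. pneumoniae. Incubation was at 37 °C, with OD595 measured every 30 min for 14 h. Fitness is the stationary-phase transition optical density over the robust mean of no-drug control wells, after first-reading background subtraction; it is capped at 1.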

B. subtilis 168 [2] = experiment: as above
Procedure, shortened: as §1

S. aureus DSM 20231 [3] = experiment: as above
Procedure, shortened: as §1

S. pneumoniae D39V [4] = experiment: Bliss interaction score (quartile over a dose matrix) (fitness difference); higher = more antagonism (negative = synergy)
Procedure, shortened: (§2)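 Combination data were used to infer fitness under each single drug. Fitness is the OD595 at entry into stationary phase divided by the robust mean of the plate's no-drug wells, with a cap of 1. The Bliss score is the observed minus the expected product fitness, summarised by quartiles over technical, biological and donor/recipient replicates.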

B. subtilis 168 [5] = experiment: as above
Procedure, shortened: as §2

S. aureus DSM 20231 [6] = experiment: as above
Procedure, shortened: as §2

S. aureus Newman = experiment: as above
Procedure, shortened: as §2
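For Bliss interaction score (quartile over a dose matrix) in this document: first quartile when negative (synergy) and third quartile when positive (antagonism).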

C[C@@H]1O[C@@H]1P(=O)(O)O [Fosfomycin] + CCC[C@@H]1C[C@@H](C(=O)N[C@@H]([C@H]2O[C@H](SC)[C@H](O)[C@@H](O)[C@H]2O)[C@@H](C)O)N(C)C1 [Lincomycin]
fitness
Conditions	partner 0.1 µg/mL	partner 0.2 µg/mL	partner 0.215 µg/mL	partner 0.4 µg/mL	partner 0.43 µg/mL	partner 0.8 µg/mL	partner 0.86 µg/mL
B. subtilis 168 [2], first compound 1.562 µg/mL	0.689	0.707	–	0.705	–	–	–
B. subtilis 168 [2], first compound 3.124 µg/mL	0.616	0.591	–	0.61	–	–	–
B. subtilis 168 [2], first compound 6.248 µg/mL	0.469	0.429	–	0.476	–	–	–
S. aureus DSM 20231 [3], first compound 0.781 µg/mL	0.645	0.508	–	0.137	–	–	–
S. aureus DSM 20231 [3], first compound 1.562 µg/mL	0.515	0.32	–	0.0482	–	–	–
S. aureus DSM 20231 [3], first compound 3.124 µg/mL	0.387	0.0895	–	0.0388	–	–	–
S. pneumoniae D39V [1], first compound 1.25 µg/mL	–	0.606	0.812	0.365	0.698	0.0632	0.499
S. pneumoniae D39V [1], first compound 2.5 µg/mL	–	0.58	0.823	0.317	0.683	0.0611	0.45
S. pneumoniae D39V [1], first compound 5 µg/mL	–	0.511	0.785	0.285	0.691	0.0462	0.394

fitness, B. subtilis 168 [2], one replicate
Conditions	first compound 1.562 µg/mL	first compound 3.124 µg/mL	first compound 6.248 µg/mL
partner 0.8 µg/mL	0.719	0.572	0.466
partner 1.6 µg/mL	0.695	0.537	0.436

Conditions	Bliss interaction score
B. subtilis 168 [5]	0.0718
S. aureus DSM 20231 [6]	-0.158
S. aureus Newman	-0.31
S. pneumoniae D39V [4]	0.0737

CO/N=C(\C(=O)N[C@@H]1C(=O)N2C(C(=O)O)=C(COC(C)=O)CS[C@H]12)c1csc(N)n1 [Cefotaxime] + CC(=O)NC[C@H]1CN(c2ccc(N3CCOCC3)c(F)c2)C(=O)O1 [Linezolid]
Conditions	fitness
B. subtilis 168 [2], first compound 0.5 µg/mL, partner 0.125 µg/mL	0.298
B. subtilis 168 [2], first compound 0.5 µg/mL, partner 0.25 µg/mL	0.0555
B. subtilis 168 [2], first compound 0.5 µg/mL, partner 0.5 µg/mL	0.0506
B. subtilis 168 [2], first compound 1 µg/mL, partner 0.125 µg/mL	0.218
B. subtilis 168 [2], first compound 1 µg/mL, partner 0.25 µg/mL	0.0513
B. subtilis 168 [2], first compound 1 µg/mL, partner 0.5 µg/mL	0.0306
B. subtilis 168 [2], first compound 2 µg/mL, partner 0.125 µg/mL	0.114
B. subtilis 168 [2], first compound 2 µg/mL, partner 0.25 µg/mL	0.0572
B. subtilis 168 [2], first compound 2 µg/mL, partner 0.5 µg/mL	0.0482
S. aureus DSM 20231 [3], first compound 0.039 µg/mL, partner 0.125 µg/mL	0.737
S. aureus DSM 20231 [3], first compound 0.039 µg/mL, partner 0.25 µg/mL	0.537
S. aureus DSM 20231 [3], first compound 0.039 µg/mL, partner 0.5 µg/mL	0.194
S. aureus DSM 20231 [3], first compound 0.078 µg/mL, partner 0.125 µg/mL	0.689
S. aureus DSM 20231 [3], first compound 0.078 µg/mL, partner 0.25 µg/mL	0.57
S. aureus DSM 20231 [3], first compound 0.078 µg/mL, partner 0.5 µg/mL	0.277
S. aureus DSM 20231 [3], first compound 0.156 µg/mL, partner 0.125 µg/mL	0.745
S. aureus DSM 20231 [3], first compound 0.156 µg/mL, partner 0.25 µg/mL	0.584
S. aureus DSM 20231 [3], first compound 0.156 µg/mL, partner 0.5 µg/mL	0.297
S. pneumoniae D39V [1], first compound 0.0018 µg/mL, partner 0.105 µg/mL	0.913
S. pneumoniae D39V [1], first compound 0.0018 µg/mL, partner 0.2 µg/mL	0.642
S. pneumoniae D39V [1], first compound 0.0018 µg/mL, partner 0.21 µg/mL	0.807
S. pneumoniae D39V [1], first compound 0.0018 µg/mL, partner 0.4 µg/mL	0.633
S. pneumoniae D39V [1], first compound 0.0018 µg/mL, partner 0.42 µg/mL	0.643
S. pneumoniae D39V [1], first compound 0.0018 µg/mL, partner 0.8 µg/mL	0.238
S. pneumoniae D39V [1], first compound 0.0035 µg/mL, partner 0.105 µg/mL	0.905
S. pneumoniae D39V [1], first compound 0.0035 µg/mL, partner 0.2 µg/mL	0.604
S. pneumoniae D39V [1], first compound 0.0035 µg/mL, partner 0.21 µg/mL	0.808
S. pneumoniae D39V [1], first compound 0.0035 µg/mL, partner 0.4 µg/mL	0.615
S. pneumoniae D39V [1], first compound 0.0035 µg/mL, partner 0.42 µg/mL	0.666
S. pneumoniae D39V [1], first compound 0.0035 µg/mL, partner 0.8 µg/mL	0.217
S. pneumoniae D39V [1], first compound 0.007 µg/mL, partner 0.105 µg/mL	0.797
S. pneumoniae D39V [1], first compound 0.007 µg/mL, partner 0.2 µg/mL	0.597
S. pneumoniae D39V [1], first compound 0.007 µg/mL, partner 0.21 µg/mL	0.693
S. pneumoniae D39V [1], first compound 0.007 µg/mL, partner 0.4 µg/mL	0.58
S. pneumoniae D39V [1], first compound 0.007 µg/mL, partner 0.42 µg/mL	0.445
S. pneumoniae D39V [1], first compound 0.007 µg/mL, partner 0.8 µg/mL	0.173

one replicate
Conditions	fitness
B. subtilis 168 [2], first compound 0.00775 µg/mL, partner 0.125 µg/mL	0.688
B. subtilis 168 [2], first compound 0.00775 µg/mL, partner 0.25 µg/mL	0.141
B. subtilis 168 [2], first compound 0.00775 µg/mL, partner 0.5 µg/mL	0.0663
B. subtilis 168 [2], first compound 0.0155 µg/mL, partner 0.125 µg/mL	0.495
B. subtilis 168 [2], first compound 0.0155 µg/mL, partner 0.25 µg/mL	0.0491
B. subtilis 168 [2], first compound 0.0155 µg/mL, partner 0.5 µg/mL	0.0426
B. subtilis 168 [2], first compound 0.031 µg/mL, partner 0.125 µg/mL	0.462
B. subtilis 168 [2], first compound 0.031 µg/mL, partner 0.25 µg/mL	0.0621
B. subtilis 168 [2], first compound 0.031 µg/mL, partner 0.5 µg/mL	0.0534
B. subtilis 168 [2], first compound 0.0625 µg/mL, partner 0.0625 µg/mL	0.553
B. subtilis 168 [2], first compound 0.0625 µg/mL, partner 0.125 µg/mL	0.327
B. subtilis 168 [2], first compound 0.0625 µg/mL, partner 0.25 µg/mL	0.0561
B. subtilis 168 [2], first compound 0.125 µg/mL, partner 0.0625 µg/mL	0.413
B. subtilis 168 [2], first compound 0.125 µg/mL, partner 0.125 µg/mL	0.216
B. subtilis 168 [2], first compound 0.125 µg/mL, partner 0.25 µg/mL	0.0505
B. subtilis 168 [2], first compound 0.25 µg/mL, partner 0.0625 µg/mL	0.308
B. subtilis 168 [2], first compound 0.25 µg/mL, partner 0.125 µg/mL	0.189
B. subtilis 168 [2], first compound 0.25 µg/mL, partner 0.25 µg/mL	0.0533
S. aureus DSM 20231 [3], first compound 0.039 µg/mL, partner 1 µg/mL	0.0567
S. aureus DSM 20231 [3], first compound 0.078 µg/mL, partner 1 µg/mL	0.0664
S. aureus DSM 20231 [3], first compound 0.156 µg/mL, partner 1 µg/mL	0.0626
S. aureus DSM 20231 [3], first compound 0.312 µg/mL, partner 0.125 µg/mL	0.658
S. aureus DSM 20231 [3], first compound 0.312 µg/mL, partner 0.25 µg/mL	0.545
S. aureus DSM 20231 [3], first compound 0.312 µg/mL, partner 0.5 µg/mL	0.342

Conditions	Bliss interaction score
B. subtilis 168 [5]	0.0544
S. aureus DSM 20231 [6]	0.0531
S. aureus Newman	-0.0569
S. pneumoniae D39V [4]	0.157

COc1cccc2c1C(=O)c1c(O)c3c(c(O)c1C2=O)C[C@@](O)(C(=O)CO)C[C@@H]3O[C@H]1C[C@H](N)[C@H](O)[C@H](C)O1 [Doxorubicin] + CCC[C@@H]1C[C@@H](C(=O)N[C@@H]([C@H]2O[C@H](SC)[C@H](O)[C@@H](O)[C@H]2O)[C@@H](C)O)N(C)C1 [Lincomycin]
fitness
Conditions	partner 0.1 µg/mL	partner 0.2 µg/mL	partner 0.215 µg/mL	partner 0.4 µg/mL	partner 0.43 µg/mL	partner 0.8 µg/mL	partner 0.86 µg/mL
B. subtilis 168 [2], first compound 0.625 µg/mL	0.903	0.882	–	0.914	–	–	–
B. subtilis 168 [2], first compound 1.25 µg/mL	0.878	0.857	–	0.88	–	–	–
B. subtilis 168 [2], first compound 2.5 µg/mL	0.726	0.668	–	0.65	–	–	–
S. aureus DSM 20231 [3], first compound 0.625 µg/mL	0.816	0.757	–	–	–	–	–
S. aureus DSM 20231 [3], first compound 1.25 µg/mL	0.853	0.835	–	–	–	–	–
S. aureus DSM 20231 [3], first compound 2.5 µg/mL	0.875	0.73	–	–	–	–	–
S. pneumoniae D39V [1], first compound 0.25 µg/mL	–	0.57	0.75	0.337	0.626	0.0441	0.427
S. pneumoniae D39V [1], first compound 0.5 µg/mL	–	0.558	0.744	0.325	0.67	0.0345	0.372
S. pneumoniae D39V [1], first compound 1 µg/mL	–	0.465	0.792	0.278	0.664	0.0189	0.307

fitness, B. subtilis 168 [2], one replicate
Conditions	first compound 0.625 µg/mL	first compound 1.25 µg/mL	first compound 2.5 µg/mL
partner 0.8 µg/mL	0.959	0.831	0.638
partner 1.6 µg/mL	0.914	0.89	0.684

Conditions	Bliss interaction score
B. subtilis 168 [5]	0.0938
S. aureus DSM 20231 [6]	0.167
S. aureus Newman	0.164
S. pneumoniae D39V [4]	-0.0622
